From patent publication US5072032A, “Preparation and use of thiophosphonates and thio-analogues of phosphonoformic acid” (priority 1989, dated 1991)
Read-outs that look alike come from different tables or passages of the source.

How the values were obtained:
HSV-1 DNA polymerase = molecular target: T1, HSV-1 DNA polymerase (Human herpesvirus 1, UniProt P04293); experiment: Viral polymerase inhibition, HSV-1; assay type: biochemical
T1 construct: made in house
Excerpt: Viral DNA polymerases (HSV-1, HSV-2, EBV) were purified by previously published methods (Derce, D. K. F. Bastow, and Y. C. Cheng (1982) J. Boil. Chem. 257:10251-10260; Ostrander, M., and Y. C. Cheng (1980) Biochim. Biophys. Acta 609:232-245; Tan, R. S., A. Datta. and Y. C. Cheng (1982) J. Virol. 44:893-899). These procedures generally included sequential chromatography on DEAE-cellulose. HIV reverse transcriptase was purified by antibody affinity column chromatography as descrbed (Starnes. M. C. and Y. C. Cheng (1989) J. Biol. Chem. 264:7073-7077). The purified enzymes were dialyzed against and stored in 50 mM Tris-HCl (pH 7.5) containing 1 mM each of DTT, EDTA and PMSF plus 30% glycerol. Mammalian DNA polymerases alpha, beta, gamma, and delta were partially purified from K562 celles (chronic myelogenous leukemia tissue culture line). Briefly, washed cell pellets were extracted and passed throgh DEAE-cellulose in the presence of 300 mM KPO4 (pH 7.5) as previously described (Starnes, M. C., and Y. C. Cheng (1987) J. Biol. Chem 282:988-981) to remove DNA. The column flow-through fractions were dialyzed against buffer which contained 50 mM Tris-HCl (pH 7.5), and fractionated on a single-stranded DNA-cellulose column with a 0-1M KCl gradient. […]

HV-6 polymerase = HV-6 polymerase (Human herpesvirus 6A, UniProt P28857); experiment: Viral polymerase inhibition, HV-6; assay type: biochemical, Herpes Virus 6
Sequence of HV-6 polymerase (P28857 whole entry): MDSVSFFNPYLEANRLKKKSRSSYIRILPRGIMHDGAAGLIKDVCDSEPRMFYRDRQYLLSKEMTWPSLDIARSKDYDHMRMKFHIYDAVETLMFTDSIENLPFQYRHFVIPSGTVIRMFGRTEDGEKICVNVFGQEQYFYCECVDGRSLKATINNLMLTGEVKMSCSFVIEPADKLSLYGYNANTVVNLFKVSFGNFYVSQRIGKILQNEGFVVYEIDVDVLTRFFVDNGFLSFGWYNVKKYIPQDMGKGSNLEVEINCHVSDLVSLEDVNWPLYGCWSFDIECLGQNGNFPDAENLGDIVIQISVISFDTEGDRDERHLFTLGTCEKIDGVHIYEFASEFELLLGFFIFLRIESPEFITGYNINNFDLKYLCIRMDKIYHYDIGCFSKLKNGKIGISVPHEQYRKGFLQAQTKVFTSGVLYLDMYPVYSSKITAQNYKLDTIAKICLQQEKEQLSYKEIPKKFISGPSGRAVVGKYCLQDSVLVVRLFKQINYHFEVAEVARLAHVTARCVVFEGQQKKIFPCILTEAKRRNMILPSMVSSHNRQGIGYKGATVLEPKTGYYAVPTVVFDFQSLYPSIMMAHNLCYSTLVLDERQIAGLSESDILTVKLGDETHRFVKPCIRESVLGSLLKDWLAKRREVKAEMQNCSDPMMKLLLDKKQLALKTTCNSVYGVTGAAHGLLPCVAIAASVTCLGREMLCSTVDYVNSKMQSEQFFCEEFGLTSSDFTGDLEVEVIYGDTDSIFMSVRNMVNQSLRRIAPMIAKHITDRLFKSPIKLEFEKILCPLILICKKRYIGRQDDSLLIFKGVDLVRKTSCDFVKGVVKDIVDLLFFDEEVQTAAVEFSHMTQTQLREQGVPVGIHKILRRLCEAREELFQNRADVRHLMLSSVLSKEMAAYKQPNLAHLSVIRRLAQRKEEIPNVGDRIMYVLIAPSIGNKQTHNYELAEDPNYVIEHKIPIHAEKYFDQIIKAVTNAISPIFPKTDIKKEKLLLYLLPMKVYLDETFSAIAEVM

human DNA polymerase γ = molecular target: T2, human DNA polymerase γ (Homo sapiens, UniProt P54098); experiment: Human DNA polymerase inhibition, gamma; assay type: biochemical; conditions: for remaining activity at 100 µM: read-out: % Control at 100 μM ± S.D.
T2 construct: Mammalian DNA polymerases alpha, beta, gamma, and delta were partially purified from K562 celles; endogenous in cells; host or cells: K562 (chronic myelogenous leukemia tissue culture line)
T2 sequence (P54098 26-1239 limits assumed): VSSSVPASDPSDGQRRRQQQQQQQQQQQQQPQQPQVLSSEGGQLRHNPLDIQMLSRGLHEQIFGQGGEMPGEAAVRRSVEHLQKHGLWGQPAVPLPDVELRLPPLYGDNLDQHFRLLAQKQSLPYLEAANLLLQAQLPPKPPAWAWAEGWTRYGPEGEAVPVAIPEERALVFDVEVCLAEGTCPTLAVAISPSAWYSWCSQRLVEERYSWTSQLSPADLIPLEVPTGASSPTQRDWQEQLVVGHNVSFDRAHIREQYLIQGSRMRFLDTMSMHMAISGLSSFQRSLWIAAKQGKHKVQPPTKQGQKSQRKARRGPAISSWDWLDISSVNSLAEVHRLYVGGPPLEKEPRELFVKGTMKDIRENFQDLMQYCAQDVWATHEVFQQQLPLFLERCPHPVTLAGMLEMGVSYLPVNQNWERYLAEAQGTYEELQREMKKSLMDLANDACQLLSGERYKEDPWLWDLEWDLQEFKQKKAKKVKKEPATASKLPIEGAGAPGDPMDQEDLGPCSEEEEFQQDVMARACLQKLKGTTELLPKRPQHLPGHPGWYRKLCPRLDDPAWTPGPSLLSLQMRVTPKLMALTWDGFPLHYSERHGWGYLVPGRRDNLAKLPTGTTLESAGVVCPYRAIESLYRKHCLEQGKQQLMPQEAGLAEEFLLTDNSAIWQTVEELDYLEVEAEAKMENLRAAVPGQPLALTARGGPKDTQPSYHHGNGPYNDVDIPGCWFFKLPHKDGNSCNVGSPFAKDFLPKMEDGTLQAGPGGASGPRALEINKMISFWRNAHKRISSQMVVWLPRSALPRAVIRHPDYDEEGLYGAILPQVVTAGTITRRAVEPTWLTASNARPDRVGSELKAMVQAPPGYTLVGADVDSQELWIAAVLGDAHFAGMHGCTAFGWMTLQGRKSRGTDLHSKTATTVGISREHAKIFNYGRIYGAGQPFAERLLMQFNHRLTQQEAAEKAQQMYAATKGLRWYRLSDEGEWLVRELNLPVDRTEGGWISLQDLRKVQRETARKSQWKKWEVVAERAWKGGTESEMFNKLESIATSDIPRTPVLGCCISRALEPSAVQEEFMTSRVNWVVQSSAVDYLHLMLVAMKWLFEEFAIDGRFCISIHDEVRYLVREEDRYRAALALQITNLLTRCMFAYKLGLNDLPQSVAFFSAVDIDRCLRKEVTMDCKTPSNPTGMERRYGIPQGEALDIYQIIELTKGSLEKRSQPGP
T2 sequence (Q9UHN1 25-485 partner limits assumed): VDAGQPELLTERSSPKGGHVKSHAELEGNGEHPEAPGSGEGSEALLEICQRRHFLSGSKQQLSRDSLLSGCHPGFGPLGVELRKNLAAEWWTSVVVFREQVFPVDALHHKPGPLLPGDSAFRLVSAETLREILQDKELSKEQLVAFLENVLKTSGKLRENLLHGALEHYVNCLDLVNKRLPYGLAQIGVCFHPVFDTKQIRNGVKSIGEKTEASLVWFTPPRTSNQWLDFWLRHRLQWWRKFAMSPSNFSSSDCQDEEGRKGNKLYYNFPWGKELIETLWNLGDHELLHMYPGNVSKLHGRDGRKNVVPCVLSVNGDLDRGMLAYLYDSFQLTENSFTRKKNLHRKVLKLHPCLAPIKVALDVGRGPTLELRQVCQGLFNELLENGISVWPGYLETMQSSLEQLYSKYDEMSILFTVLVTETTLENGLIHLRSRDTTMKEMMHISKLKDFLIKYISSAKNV
Excerpt: (§1) Viral DNA polymerases (HSV-1, HSV-2, EBV) were purified by previously published methods (Derce, D. K. F. Bastow, and Y. C. Cheng (1982) J. Boil. Chem. 257:10251-10260; Ostrander, M., and Y. C. Cheng (1980) Biochim. Biophys. Acta 609:232-245; Tan, R. S., A. Datta. and Y. C. Cheng (1982) J. Virol. 44:893-899). These procedures generally included sequential chromatography on DEAE-cellulose. HIV reverse transcriptase was purified by antibody affinity column chromatography as descrbed (Starnes. M. C. and Y. C. Cheng (1989) J. Biol. Chem. 264:7073-7077). The purified enzymes were dialyzed against and stored in 50 mM Tris-HCl (pH 7.5) containing 1 mM each of DTT, EDTA and PMSF plus 30% glycerol. Mammalian DNA polymerases alpha, beta, gamma, and delta were partially purified from K562 celles (chronic myelogenous leukemia tissue culture line). Briefly, washed cell pellets were extracted and passed throgh DEAE-cellulose in the presence of 300 mM KPO4 (pH 7.5) as previously described (Starnes, M. C., and Y. C. Cheng (1987) J. Biol. Chem 282:988-981) to remove DNA. The column flow-through fractions were dialyzed against buffer which contained 50 mM Tris-HCl (pH 7.5), and fractionated on a single-stranded DNA-cellulose column with a 0-1M KCl gradient.
(§2) In accordance with the teaching of the present invention similar enzyme inhibition assays were also conducted with respect to mammalian enzymes, more particularly, human DNA polymerase.

human DNA polymerase β = molecular target: T3, human DNA polymerase β (Homo sapiens, UniProt P06746); experiment: Human DNA polymerase inhibition, beta; assay type: biochemical; conditions: for remaining activity at 100 µM: read-out: % Control at 100 μM ± S.D.
T3 construct: Mammalian DNA polymerases alpha, beta, gamma, and delta were partially purified from K562 celles; endogenous in cells; host or cells: K562 (chronic myelogenous leukemia tissue culture line)
Excerpt: as §1, §2

HSV-2 DNA polymerase = molecular target: T4, HSV-2 DNA polymerase (Human herpesvirus 2, UniProt P89453); experiment: Viral polymerase inhibition, HSV-2; assay type: biochemical
T4 construct: made in house
T4 sequence (P89453 whole entry): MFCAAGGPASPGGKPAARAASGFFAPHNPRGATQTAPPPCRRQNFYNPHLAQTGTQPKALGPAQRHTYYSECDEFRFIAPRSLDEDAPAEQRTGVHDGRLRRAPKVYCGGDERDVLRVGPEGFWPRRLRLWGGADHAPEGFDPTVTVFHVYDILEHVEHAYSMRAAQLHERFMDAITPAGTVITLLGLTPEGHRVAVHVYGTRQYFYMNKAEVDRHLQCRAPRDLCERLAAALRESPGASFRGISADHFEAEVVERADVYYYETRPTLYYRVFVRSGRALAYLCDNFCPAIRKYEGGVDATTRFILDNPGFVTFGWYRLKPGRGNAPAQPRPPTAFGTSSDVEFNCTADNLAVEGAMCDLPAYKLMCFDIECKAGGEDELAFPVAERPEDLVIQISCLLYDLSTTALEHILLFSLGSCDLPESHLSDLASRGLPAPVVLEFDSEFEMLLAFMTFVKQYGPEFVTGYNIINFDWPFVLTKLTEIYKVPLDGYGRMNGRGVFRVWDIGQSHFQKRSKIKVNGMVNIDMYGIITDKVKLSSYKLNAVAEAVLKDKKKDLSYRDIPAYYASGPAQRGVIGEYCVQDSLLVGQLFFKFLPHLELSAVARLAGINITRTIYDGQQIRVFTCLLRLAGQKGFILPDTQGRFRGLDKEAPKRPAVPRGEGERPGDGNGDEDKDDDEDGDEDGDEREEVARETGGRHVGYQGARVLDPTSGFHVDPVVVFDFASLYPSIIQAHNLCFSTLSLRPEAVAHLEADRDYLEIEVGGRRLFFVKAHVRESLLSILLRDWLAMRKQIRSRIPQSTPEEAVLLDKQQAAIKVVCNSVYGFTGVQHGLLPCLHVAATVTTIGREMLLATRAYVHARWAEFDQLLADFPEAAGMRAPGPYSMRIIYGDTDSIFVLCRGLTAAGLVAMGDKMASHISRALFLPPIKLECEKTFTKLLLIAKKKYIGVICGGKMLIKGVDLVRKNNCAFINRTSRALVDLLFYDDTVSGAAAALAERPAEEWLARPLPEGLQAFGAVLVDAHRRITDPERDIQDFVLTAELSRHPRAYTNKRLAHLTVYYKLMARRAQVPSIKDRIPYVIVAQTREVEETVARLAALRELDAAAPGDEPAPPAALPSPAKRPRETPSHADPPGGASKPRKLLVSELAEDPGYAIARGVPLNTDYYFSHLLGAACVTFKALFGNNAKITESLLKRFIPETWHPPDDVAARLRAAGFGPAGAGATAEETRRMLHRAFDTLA
Excerpt: as §1
Standard assays were run at 37° C. and contained: 50 mM Tris, pH b 8.0, 0.5 mM DTT, 8 mM MgCl2, 100 μg/mL BSA, 150 μg/mL gapped calf thymus DNA, 100 μM each dATP, dCTP, dGTP, 10 .parallel.M [^3 H]-dTTP, and 1-5 .parallel.L enzyme in a final volume of 50 .parallel.L. Modified assays for pH dependence inhibition studies with PFA (1) and α--oxo phosphonates (4 and 5) contained 50 mM Hepes, pH 8.2-6.5, 8 mM MgCl2, 100 mM KCl, 100 μg/ml BSA, 0.5 A260 units/ml of poly(rA).(dT)10, 100 μM [^3 H]dTTP, and 1.5 .parallel.L enzyme in a final volume of 50 μL. Samples were processed as described above.

T1 sequence (P04293 whole entry): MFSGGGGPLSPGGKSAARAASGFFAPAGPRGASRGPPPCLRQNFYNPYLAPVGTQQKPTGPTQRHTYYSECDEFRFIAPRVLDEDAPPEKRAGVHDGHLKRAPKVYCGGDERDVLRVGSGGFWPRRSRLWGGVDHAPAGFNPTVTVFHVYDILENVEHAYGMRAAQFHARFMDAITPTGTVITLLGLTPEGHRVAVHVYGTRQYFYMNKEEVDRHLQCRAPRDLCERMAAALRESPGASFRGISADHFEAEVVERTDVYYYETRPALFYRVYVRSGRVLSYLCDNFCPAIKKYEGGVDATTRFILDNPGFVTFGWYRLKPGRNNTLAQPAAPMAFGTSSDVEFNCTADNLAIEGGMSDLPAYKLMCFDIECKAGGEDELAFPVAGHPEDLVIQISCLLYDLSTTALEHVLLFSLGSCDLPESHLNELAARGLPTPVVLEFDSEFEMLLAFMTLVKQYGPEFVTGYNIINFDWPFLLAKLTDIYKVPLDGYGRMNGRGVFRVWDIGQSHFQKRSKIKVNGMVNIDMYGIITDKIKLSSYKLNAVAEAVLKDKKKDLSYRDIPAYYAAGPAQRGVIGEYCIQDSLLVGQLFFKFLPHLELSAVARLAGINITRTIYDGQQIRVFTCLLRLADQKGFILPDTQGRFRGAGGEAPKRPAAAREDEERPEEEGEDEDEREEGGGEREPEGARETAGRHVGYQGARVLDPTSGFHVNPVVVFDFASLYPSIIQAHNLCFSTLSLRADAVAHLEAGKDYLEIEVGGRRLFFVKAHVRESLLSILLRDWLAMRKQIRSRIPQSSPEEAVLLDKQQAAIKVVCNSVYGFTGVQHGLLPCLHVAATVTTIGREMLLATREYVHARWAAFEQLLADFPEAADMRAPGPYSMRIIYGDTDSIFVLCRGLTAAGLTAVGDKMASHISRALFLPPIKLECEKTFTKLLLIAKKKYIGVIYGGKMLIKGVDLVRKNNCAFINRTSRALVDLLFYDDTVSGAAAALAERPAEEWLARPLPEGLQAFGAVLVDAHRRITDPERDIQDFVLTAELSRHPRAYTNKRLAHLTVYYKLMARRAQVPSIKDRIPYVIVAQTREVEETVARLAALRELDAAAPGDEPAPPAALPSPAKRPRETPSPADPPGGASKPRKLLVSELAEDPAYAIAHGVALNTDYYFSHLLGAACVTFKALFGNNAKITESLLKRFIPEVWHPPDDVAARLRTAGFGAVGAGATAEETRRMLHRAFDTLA

Q: With `O=C(O)P(=O)(O)O` [PFA, phosphonoformic acid] as the compound, how does the IC50 (HSV-1 DNA polymerase; HSV-1, "activated" DNA, read-out: ID50 (the source's name)) read?
A: The IC50 was 0.7 µM.

Q: And the IC50 (HV-6 polymerase; HV-6, "activated" DNA, read-out: ID50 (the source's name))?
A: The IC50 was 1 µM.

Q: And the remaining activity at 100 µM (human DNA polymerase γ; Pol γ, 100 μM, "activated" DNA)?
A: The remaining activity at 100 µM was 55 ± 5%.

Q: And the IC50 (human DNA polymerase γ; Pol γ, "activated" DNA, read-out: ID50 (the source's name))?
A: Its IC50 is greater than 100 µM.

Q: And the remaining activity at 100 µM (human DNA polymerase β; Pol β, 100 μM, "activated" DNA)?
A: The remaining activity at 100 µM was 89 ± 8%.

Q: And the IC50 (human DNA polymerase β; Pol β, "activated" DNA, read-out: ID50 (the source's name))?
A: Its IC50 is greater than 100 µM.

Q: And the IC50 (HSV-2 DNA polymerase; HSV-2, "activated" DNA, read-out: ID50 (the source's name))?
A: The IC50 was 0.7 µM.

Q: For `O=C(O)P(O)(O)=S` [TPFA, thiophosphonoformic acid], which IC50 (HSV-1 DNA polymerase) is on record?
A: Its IC50 is 11.8 µM.

Q: What about the IC50 (HV-6 polymerase) of the same compound?
A: The IC50 was 70 µM.

Q: What about the “effectiveness of TPFA relative to PFA” value (HV-6 polymerase; Herpes Virus 6 enzyme, ratio of ID50 values of Table I) of the same compound?
A: Its value is “more than seventy times less effective”.

Q: And the IC50 (human DNA polymerase γ)?
A: Its IC50 is greater than 100 µM.

Q: What about the remaining activity at 100 µM (human DNA polymerase γ) of the same compound?
A: Its remaining activity at 100 µM is 75 ± 3%.

Q: What about the IC50 (human DNA polymerase β) of the same compound?
A: The IC50 was greater than 100 µM.

Q: And the remaining activity at 100 µM (human DNA polymerase β)?
A: The remaining activity at 100 µM was 91 ± 4%.

Q: What about the IC50 (HSV-2 DNA polymerase) of the same compound?
A: Its IC50 is 11.3 µM.

Q: What about the “effectiveness of TPFA relative to PFA” value (HSV-2 DNA polymerase; HSV-2 enzyme, ratio of ID50 values of Table I) of the same compound?
A: The value was “fifteen to twenty times less effective”.
